Entries after “also recorded” stand apart in the source; their conditions may differ.
Experiment: Semi-quantitative distribution of I5NP siRNA in lung (hybridization assay)
Assay type: in vivo, cynomolgus monkeys
Method: On Day 15 of the study, two of the available animals (101 and 102) were administered a target dose of 35 mg/kg of a mixture of I5NP and REDD14Cy3.5 (fluorescence-labelled) siRNA via an oronasal mask as a nebulized aerosol generated by the Aeroneb device. A 2.0 L/min dilution airflow was used. The total dose of siRNA administered was calculated, based on the bodyweights and measured respiratory minute volumes of the animals, and on the achieved output of the Aeroneb device using the formulation concentration of 40 mg/mL of siRNA. The administered dose was adjusted by changing the exposure times for the animals
On Day 35 of the Study, the three remaining main study animals (103 to 105) were administered a target dose of 35 mg/kg of I5NP siRNA via an oronasal mask as a nebulized aerosol generated by the Aeroneb device. A 2.0 L/min dilution airflow was used. The total dose administered was calculated, based on the bodyweights and measured respiratory minute volumes of the animals, and on the achieved output of the Aeroneb device using the formulation concentration of 40 mg/mL. The administered dose was adjusted by changing the exposure times for the animals.
At the time of necropsy following Treatment 2, the lungs of animal 101 were removed from the animal. The lungs were separated into individual lobes. The bronchi/bronchioles and immediately surrounding regions of each lobe were dissected out as carefully as was practicable and pooled, per lobe. The remaining tissue areas were pooled, per lobe. Each pooled sample (i.e. bronchi/bronchioles and remaining tissue for each lobe) was stored deep-frozen (−80° C.) for analysis via hybridization assay. Lung samples from animal 101 were tracked using the Watson LIMS system.
At each specified time of necropsy following Treatment 3, the lungs of animals 103, 104 or 105 were removed from the animals. Each set of lungs were separated into individual lobes. The bronchi/bronchioles and immediately surrounding regions of each lobe were dissected out as carefully as was practicable and pooled, per lobe. The remaining tissue areas were pooled, per lobe. […]
All lung samples from animal 101 (i.e. left cranial lobe, bronchioles and remainder; left caudal lobe, bronchioles and remainder; right cranial lobe, bronchioles and remainder; right middle lobe, bronchioles and remainder; right caudal lobe, bronchioles and remainder and right accessory lobe, bronchioles and remainder) were analyzed for I5NP siRNA concentration. For animals 103, 104 and 105, left cranial lobe (bronchioles and remainder) and right caudal lobe (bronchioles and remainder) were analyzed for I5NP siRNA concentration. […] The results obtained for lung samples were considered as semi-quantitative.

I5NP: exemplary p53 inhibiting siRNA; sense GAGAAUAUUUCACCCUUCA, antisense UGAAGGGUGAAAUAUUCUC (chemistry not given here)
I5NP concentration in bronchioles and peripheral lung tissues (Treatment 2 (I5NP:REDD14Cy3.5 9:1), animal 101, approximately 30 minutes post-end of dosing, all 6 lobes, semi-quantitative): found in high concentrations in both bronchioles and in peripheral tissues of all lobes of each lung
I5NP concentration, peripheral tissues versus bronchiolar samples (Treatment 2, animal 101, approximately 30 minutes post-end of dosing): generally higher in the peripheral tissues than in the bronchiolar samples
relative concentrations in bronchiolar and peripheral lung tissues over time (Treatment 3, animals 103, 104, 105, 6, 24 and 72 h post-end of dosing, left cranial and right caudal lobes): still detectible at 72 hours post-end of dosing
levels in lungs compared with plasma (all time points post-dose): at all times greater than those in plasma; also recorded: higher than in plasma

Reference: US20100215588A1, “THERAPEUTIC DELIVERY OF INHIBITORY NUCLEIC ACID MOLECULES TO THE RESPIRATORY SYSTEM” (priority 2007, published 2010)
